Test results reported in paper PMC7911295, “Metabolism of Zearalenone in the Rumen of Dairy Cows with and without Application of a Zearalenone-Degrading Enzyme” (Toxins, 2021).

Tests used:
[1] = for Detection in reactors: reactors incubated with ZEN without ZenA, any time point
[2] = test system: estrogen-sensitive yeast; set-up: method as in PMID 31434326; settings: cited from earlier work
[3] = Feeding trial in rumen-fistulated dairy cows: ZEN and ZEN metabolites in rumen fluid from reticulum, dorsal mat layer and ventral sac; assay type: in vivo, Holstein Friesian cows; settings: for Detection in rumen fluid: any reticulorumen location
From the text: (§1) Ruminal metabolism of ZEN with and without supplementation of ZenA was investigated in four rumen-fistulated Holstein Friesian cows (sex: female; age at start: 5.9 ± 1.0 years; body weight at start: 863 ± 65 kg; physiological stage: non-lactating; general health: good, non-gestating; identification procedure: ear tag 4-digit code). The cows were part of the dairy herd of VetFarm (Teaching and Research Farm) of the University of Veterinary Medicine Vienna in Kremesberg, Austria. All procedures related to these experiments were performed according to Austrian law and following the European Guidelines for the Care and Use of Animals for Research Purpose. The animal experiment was approved by ethics and animal welfare commission of the University of Veterinary Medicine, Vienna and the Austrian Federal Ministry of Education, Science and Research (68.205/0156-WF/V/3b/2017, 30.08.2017).
(§2) In our trial setup, each animal was considered an experimental unit (n = 4). Each animal received the same treatment and served as its own control. First, each animal received ZEN-contaminated concentrate feed. Following a 48-h washout period, each animal received ZEN-contaminated concentrate feed supplemented with ZenA. In brief, for acclimatization, on the day prior to the start of the feeding trial, each animal was manually fed 4 × 500 g of control concentrate (Table 4 and Table 5). Thereafter, animals were manually fed (i) 1 × 500 g concentrate contaminated with ZEN and 3 × 500 g control concentrate on experimental day 1 (ZEN treatment), (ii) 4 × 500 g control concentrate on day 2 (ZEN washout), (iii) 1 × 500 g ZEN-contaminated concentrate supplemented with ZenA and 3 × 500 g control concentrate on day 3 (ZEN+ZenA treatment), and (iv) 4 × 500 g control concentrate on day 4 (ZEN+ZenA washout; Table 6). Animals were treated and assessed in the same random order at each experimental time point.
For production of ZEN-contaminated concentrate feed, lyophilizate of ZEN with maltodextrin as a carrier was prepared. To this end, in three parallel preparations, 50 mg ZEN (Fermentek, Jerusalem, Israel) was dissolved in 1 L RO water (pH 12; adjusted with NaOH) using a magnetic stirrer set to 400 rpm and 37 °C for 20 min. Subsequently, 100 g maltodextrin DE19 (Agrana, Vienna, Austria) was added and dissolved by stirring (400 rpm) at room temperature for 10 min. The solution was lyophilized. Lyophilizate was mixed into concentrate feed at an inclusion rate of 2%. The final concentration of ZEN in feed was aimed to be 10 mg/kg and was verified using HPLC-MS/MS analysis as described below. For production of ZEN-contaminated, ZenA-supplemented concentrate, a zearalenone hydrolase ZenA preparation (ZENzyme®; EC 3.1.1.-; BIOMIN Holding GmbH, Getzersdorf, Austria) was mixed into ZEN-contaminated concentrate to achieve an activity of 128 U/kg feed. Same as in the in vitro trial, 1 U of ZenA was defined as the enzyme activity that hydrolyzes 1 μmol ZEN per minute from 15.71 µM ZEN in Teorell Stenhagen buffer adjusted to pH 7.5 containing 0.1 mg/mL bovine serum albumin at 37 °C.
On days 1 and 3 of the trial (ZEN and ZEN+ZenA treatment, respectively), ruminal digesta samples were taken from reticulum, ventral sac and dorsal mat layer (Figure 3) immediately before concentrate feeding (0 h), as well as 15 min, 1 h, 2 h, 4 h, 7 h and 10 h after concentrate feeding (Table 6). On days 2 and 4 of the trial (washout days), ruminal digesta samples were taken immediately before first concentrate feeding (0 h), as well as 10 h after first concentrate feeding (Table 6). Ruminal digesta samples (10 mL) were taken via a rumen fistula from reticulum and ventral sac (10 cm above the bottom of the rumen) using a pump as described previously. Samples were taken from the dorsal mat layer 20 cm below the gas phase and rumen fluid was obtained by manually squeezing the samples as described previously. Samples were mixed 1:2 with acetonitrile by vortexing. […]

[4] = test system: pigs; set-up: method as in PMID 31434326; settings: in contrast to ZEN; cited from earlier work
[5] = Feeding trial in rumen-fistulated dairy cows: ZEN and ZEN metabolites in feces; assay type: in vivo, Holstein Friesian cows; settings: for Percentage of concentration relative to the sum of ZEN and ZEN metabolite concentrations: feces
From the text: as §1, §2
On days 1 and 3 of the experiment, feces samples were taken from the rectum immediately before concentrate feeding (0 h), as well as 10 h after concentrate feeding (Table 6) and stored at −20 °C. Aliquots (500 mg) of thoroughly homogenized feces samples were extracted for HPLC-MS/MS analysis according to the method described by Binder and coworkers.
HPLC-MS/MS analysis of ZEN, α-ZEL, β-ZEL, HZEN and DHZEN in rumen fluid and feces was performed as described for the in vitro rumen fermentation experiment (see section “In Vitro Rumen Fermentation Experiment”, subsection “Analysis of ZEN and its Metabolites”), with the following modifications. Chromatographic separation was performed with a flow rate of 0.6 mL/min, a duration of 4 min and an injection volume was 1 µL. The gradient started at 30% B which was held for 0.3 min. Subsequently, the proportion of B was increased to 80% from 0.3 to 2 min, and increased to 100% from 2 to 2.1 min. […] LODs for ZEN, α-ZEL, β-ZEL, HZEN and DHZEN in rumen fluid were 2.83 nmol/L (0.9 µg/L), 2.81 nmol/L (0.9 µg/L), 2.81 nmol/L (0.9 µg/L), 2.68 nmol/L (0.9 µg/L) and 10.27 nmol/L (3 µg/L), respectively. LOQs for ZEN, α-ZEL, β-ZEL, HZEN and DHZEN in rumen fluid were 9.43 nmol/L (3 µg/L), 9.37 nmol/L (3 µg/L), 9.37 nmol/L (3 µg/L), 8.93 nmol/L (3 µg/L) and 30.81 nmol/L (9 µg/L), respectively. LODs for ZEN, α-ZEL, β-ZEL, HZEN and DHZEN in feces were 0.03 nmol/g (8.4 ng/g), 0.03 nmol/g (8.4 ng/g), 0.03 nmol/g (8.4 ng/g), 0.03 nmol/g (8.4 ng/g) and 0.10 nmol/g (28 ng/g), respectively. LOQs for ZEN, α-ZEL, β-ZEL, HZEN and DHZEN in feces were 0.09 nmol/g (28 ng/g), 0.09 nmol/g (28 ng/g), 0.09 nmol/g (28 ng/g), 0.08 nmol/g (28 ng/g) and 0.29 nmol/g (84 ng/g), respectively.

[6] = test system: MCF-7 cell; set-up: method as in PMID 12596876, PMID 31434326; settings: cited from earlier work
[7] = reticulorumen, ZEN treatment, 15 min after feeding, from median of 3 locations
[8] = reticulorumen, ZEN treatment, 1 h
[9] = reticulorumen, ZEN treatment, 4 h
[10] = reticulorumen, ZEN treatment, 7 h
[11] = reticulorumen, ZEN treatment, 10 h
[12] = reticulorumen, ZEN treatment, 24 h
[13] = reticulorumen, ZEN+ZenA treatment, 15 min
[14] = reticulorumen, ZEN+ZenA treatment, 1 h
[15] = reticulorumen, ZEN+ZenA treatment, 4 h
[16] = reticulorumen, ZEN+ZenA treatment, 7 h
[17] = reticulorumen, ZEN+ZenA treatment, 10 h
[18] = ZEN+ZenA treatment, 0 h (48 h after ZEN treatment)

SMILES	Detection in reactors [1]	Estrogenic response [2]	Detection in rumen fluid ([3]; ZEN treatment)	Percentage of concentration relative to the sum of ZEN and ZEN metabolite concentrations [3, 7] [%]	Percentage of concentration relative to the sum of ZEN and ZEN metabolite concentrations [3, 8] [%]	Percentage of concentration relative to the sum of ZEN and ZEN metabolite concentrations [3, 9] [%]	Percentage of concentration relative to the sum of ZEN and ZEN metabolite concentrations [3, 10] [%]	Percentage of concentration relative to the sum of ZEN and ZEN metabolite concentrations [3, 11] [%]	Percentage of concentration relative to the sum of ZEN and ZEN metabolite concentrations [3, 12] [%]	Percentage of concentration relative to the sum of ZEN and ZEN metabolite concentrations [3, 13] [%]	Percentage of concentration relative to the sum of ZEN and ZEN metabolite concentrations [3, 14] [%]	Percentage of concentration relative to the sum of ZEN and ZEN metabolite concentrations [3, 15]	Percentage of concentration relative to the sum of ZEN and ZEN metabolite concentrations [3, 16]	Percentage of concentration relative to the sum of ZEN and ZEN metabolite concentrations [3, 17]	Effect on reproductive tract morphology or expression of ZEN-responsive microRNAs [4]	Percentage of concentration relative to the sum of ZEN and ZEN metabolite concentrations ([5]; ZEN treatment, 10 h) [%]	Percentage of concentration relative to the sum of ZEN and ZEN metabolite concentrations [5, 18] [%]	Percentage of concentration relative to the sum of ZEN and ZEN metabolite concentrations ([5]; ZEN+ZenA treatment, 10 h) [%]	Estrogenic response [6]	further results
C[C@H](O)CCCC(=O)CCC/C=C/c1cc(O)cc(O)c1 [DHZEN, decarboxylated hydrolyzed zearalenone]	not detected	did not elicit an estrogenic response	not detected	0.0	0.0	0.0	0.0	0.0	0.0	0.0	0.0	0.0 (traces) %	0.0 (traces) %	0.0 (traces) %	did not affect	0.0	0.0	0.0	did not elicit an estrogenic response	First detected (time after start of incubation) ([1]; reactors incubated with ZEN and ZenA (100 U/kg feed)): 2 h; Detection in feces ([5]; ZEN and ZEN+ZenA treatments, any sample): not detected
C[C@H](O)CCCC(=O)CCC/C=C/c1cc(O)cc(O)c1C(=O)O [HZEN, hydrolyzed zearalenone]	not detected	did not elicit an estrogenic response	not detected	0.0	0.0	0.0	0.0	0.0	0.0	94.1	100.0	100.0%	100.0%	100.0%	did not affect	0.0	0.0	31.9	did not elicit an estrogenic response	Not detected anymore at (time after concentrate feeding) ([3]; reticulorumen, ZEN+ZenA treatment): 24 h
